The values below come from article PMC8605905 (Oxidative Medicine and Cellular Longevity, 2021).

For data set [1], the target named is T1, Aβ and ΔK280 tauRD aggregates (Homo sapiens, UniProt P05067+P10636, DEL597-597).
T1 construct: To investigate Aβ and ΔK280 tauRD aggregates
The experiment in a line: TEM examination of Aβ and tau aggregates. Particulars: 10 μM. The text has this:
To investigate Aβ and ΔK280 tauRD aggregates, samples of the fibrils formed with and without treatment of a tested compound were placed on a 200-mesh copper (holey-carbon) grid and visualized using a JEM-1230 transmission electron microscope (TEM) (JEOL, Tokyo, Japan) at an accelerating voltage of 100 kV.

Data set [2] relates to ∆K280 tauRD-DsRed SH-SY5Y cells. The experiment in a line: High content analysis of ΔK280 tauRD-DsRed fluorescence. In kind it is cell-based, Human. The following applies: tested 2.5–10 μM. How it is done: Human 293-derived Flp-In-293 cells (Invitrogen, Madison, WI, USA) were cultivated in Dulbecco's modified Eagle's medium (DMEM) containing 10% foetal bovine serum (FBS) (Thermo Fisher Scientific). Human neuroblastoma SH-SY5Y-derived Aβ-GFP [23] and ∆K280 tauRD-DsRed cells were kept in DMEM/nutrient mixture F12 (DMEM/F12) containing 10% FBS, 5 μg/ml blasticidin, and 100 μg/ml hygromycin (InvivoGen, San Diego, CA, USA). Doxycycline (Sigma-Aldrich) was applied to induce the expression of Aβ-GFP (5 μg/ml doxycycline) or ∆K280 tauRD-DsRed (2 μg/ml doxycycline).
On day 1, Aβ-GFP or ∆K280 tauRD-DsRed SH-SY5Y cells were seeded into 96-well plates (2.5 × 10^4/well) and treated with retinoic acid (10 μM; Sigma-Aldrich) to prompt neuronal differentiation. […] On day 8, cells were stained with Hoechst 33342 (0.1 μg/ml; Sigma-Aldrich) for 30 min, and cell images were automatically captured at excitation/emission wavelengths of 482/[…] (GFP fluorescence) or 543/593 nm (DsRed fluorescence) using a high content analysis (HCA) system (Micro Confocal High-Content Imaging System). Image Acquisition and Analysis Software (MetaXpress) (Molecular Devices, Sunnyvale, CA, USA) was used to analyse the images. CellROX Orange (5 μM; Molecular Probes, Eugene, OR, USA) (for Aβ-GFP cells) or dichloro-dihydro-fluorescein diacetate (DCFH-DA, 10 μM; Invitrogen) (for ∆K280 tauRD-DsRed cells) was added to the cells and incubated at 37°C for 30 min. The HCA system was used to measure intracellular ROS at 531/593 nm (CellROX Orange fluorescence) or 482/536 nm (DCFH-DA fluorescence) of excitation/emission wavelengths.

Data set [3] in a line: Mouse pharmacokinetics study and brain/plasma ratio. In kind it is in vivo, Male Crl:CD-1 (ICR) mice. Particulars: for half-life: read-out: t1/2 (elimination half-life) (converted); for AUC(0-inf): iv, 5 mg/kg. How it is done: Male Crl:CD-1 (ICR) mice (8 weeks old) weighing 25–30 g were housed in cages with ad libitum access to food and drinking water on a 12 : 12 h light-dark cycle. All animal experiments were performed in accordance with the guidelines approved by the Rosetta Pharmamate Institutional Animal Care and Use Committee (IACUC Approval No: AF20015). Mice were randomly divided into 7 subgroups (6 time points and 1 vehicle control; n = 3 per subgroup). LM-021 (in 5% DMSO and 19% hydroxypropyl-β-cyclodextrin) was administered intravenously (IV) at 5 mg/kg dose in volume of 10 ml/kg. Mice were euthanized in a CO2 chamber at 0.25, 0.5, 1, 2, 4, or 8 h postdose. Whole blood was collected via facial veins in heparin-coated polypropylene tubes, and plasma was obtained by centrifugation (1000 × g for 15 min at 4°C) within 60 min of collection. After cerebral vasculature perfusion through the left ventricle with normal saline for 5 min, the whole brain was quickly excised and weighed. Plasma and brain samples were rapidly frozen and stored at −70°C until analysis (see supplementary materials).
Pharmacokinetic (PK) parameters, including plasma concentration following IV dose (C0), elimination half-life (T1/2), mean residence time (MRT), and area under the concentration- (AUC-) time curve from time 0 extrapolated to infinity (AUC(0-∞)), were estimated using noncompartmental pharmacokinetic parameter analysis with Phoenix WinNonlin software (version 8.2, Pharsight Corporation, Mountain View, CA, USA). In addition, the ratio of brain/plasma was calculated from the area under the curve for brain and plasma concentrations.
Supplementary Description
Preparation and analysis of mouse plasma and brain homogenate samples. A solvent-based protein precipitation procedure was used for analyzing plasma and brain homogenate samples. A 20-μl aliquot of each plasma sample was mixed with 60 μl of acetonitrile. For brain samples, collected brains were homogenized in 3 volumes of methanol, and then 50 μl of brain homogenate was mixed with 50 μl of acetonitrile.
After vortexing and centrifugation (20,000 × g for 5 min), the extracted supernatants were collected. Liquid chromatography – tandem mass spectrometry (LC-MS/MS) analyses was performed using an Agilent 1200 (Agilent Technologies, Palo Alto, CA, USA) coupled to a QTrap 5500 triple-quadrupole mass spectrometer (AB SCIEX, Foster City, CA, USA). Chromatographic separation was performed on an Eclipse Plus C18 column (3.5 µm; 4.6 × 50 mm; Agilent Technologies) with the mobile phase performed at a constant flow rate of 1.0 ml/min using a binary solvent system: solvent A, 5 mM ammonium acetate; solvent B, acetonitrile. The transition (precursor ion to daughter ion) monitored was m/z 336.2 → 321.0 for LM-021. Multiple reaction monitoring (MRM) data were acquired, and the chromatograms were integrated using Analyst 1.6.3 software (Applied Biosystems). A weighted (1/x) linear regression was used to generate the calibration curves from standards and to calculate the sample […]
concentrations. […]

[4] abbreviates: Crl:CD-1 (ICR), mouse, plasma, ICR male mice, IV 5 mg/kg.

Read-outs that look alike come from different tables or passages of the source.

What is called EC50 is the concentration at which the effect is half-maximal. A word on the MRT: it is a mean duration of stay, worked out from the concentration-time curve. As usually defined, the clearance is a measure of how efficiently the substance is removed, as volume per time. As a reminder, the Kp is the ratio of the level in a tissue or fluid to that in plasma or blood.

As for `CN(C)c1ccc(/C=C/C(=O)c2c(O)c3ccccc3oc2=O)cc1` [LM-021, (E)-3-(3-(4-(dimethylamino)phenyl)acryloyl)-4-hydroxy-2H-chromen-2-one], the “Aβ and tau aggregate structures by TEM” value in data set [1] was “reduced amyloid aggregates”. For the same compound, the EC50 in data set [2] (Homo sapiens, ∆K280 tauRD-DsRed SH-SY5Y cells, read-out: Extrapolated EC50 in inhibiting ∆K280 tauRD aggregation (DsRed fluorescence)) was 10 µM. The “Concentration significantly elevating DsRed fluorescence intensity” value in data set [2] (day 8) is 5 to 10 µM. The half-life in data set [3] (Crl:CD-1 (ICR), mouse, brain, ICR male mice, IV 5 mg/kg) was 2.17 ± 0.67 h; in data set [3] (setting [4]), 2.54 ± 0.79 h. For the same compound, in data set [3] (setting [4]), the C0 was determined as 20400 ± 9480 ng/mL. In data set [3] (setting [4]), the MRT amounted to 3.54 ± 0.93 h. Moreover, in data set [3] (setting [4]), the clearance was found to be 1.85 ± 0.12 mL/min/kg. In addition, the Vd in data set [3] (Crl:CD-1 (ICR), mouse, plasma, ICR male mice, IV 5 mg/kg, read-out: Vss) came to 0.39 ± 0.08 L/kg. In data set [3] (calculated by the AUC(0-∞) ratios, ICR male mice, IV 5 mg/kg), the Brain/plasma ratio is given as 0.053. In addition, the Kp in data set [3] (male, Crl:CD-1 (ICR), mouse, brain and plasma, mice, IV 5 mg/kg) is 0.053. In addition, the AUC(0-inf) in data set [3] (male, Crl:CD-1 (ICR), mouse, brain, brain (tissue density assumed 1 g/ml), ICR male mice, IV 5 mg/kg, read-out: AUC(0-∞)) came out at 2380 ± 34 ng·h/mL; in data set [3] (male, Crl:CD-1 (ICR), mouse, brain, brain, mice, intravenous bolus 5 mg/kg, read-out: Systemic exposure (AUC0-∞)), 2380 ± 30 ng·h/mL; in data set [3] (male, Crl:CD-1 (ICR), mouse, plasma, plasma, ICR male mice, IV 5 mg/kg, read-out: AUC(0-∞)), 45300 ± 2830 ng·h/mL; in data set [3] (male, Crl:CD-1 (ICR), mouse, plasma, plasma, mice, intravenous bolus 5 mg/kg, read-out: Systemic exposure (AUC0-∞)), 45300 ± 2830 ng·h/mL. Moreover, the “Plasma clearance as share of cardiac output blood flow of mice (400 ml/min/kg)” value in data set [3] (mice, IV 5 mg/kg) is “about 0.5%”.
